Laboratory results taken from patent US20040142937A1, “Use of heterocyclic amine-type compounds as neuroprotective agents” (priority 2002, published 2004).

How the values were obtained:
[1] = tested on: rat model of cerebral infarction; conditions: administered before the event; cited from earlier work
rats = experiment: 3-acetylpyridine (3-AP) neurotoxicity model in rats; type: in vivo, rat
[2] = sumanirole 1-20 mg/kg PO, given before or after 3-AP, sacrifice 96 hours later, dose-related

## CN[C@@H]1Cc2cccc3[nH]c(=S)n(c23)C1
other
  melting point: 210 to 213 °C

## CN[C@@H]1Cc2cccc3[nH]c(=S)n(c23)C1.O=C(O)CC(O)C(=O)O
other
  melting point: 195 to 196 °C

## CCN(CC)C(=O)N[C@H]1C=C2c3cccc4[nH]cc(c34)C[C@H]2N(C)C1 [Lisuride]
[1]
  brain edema: reduced
  survival time: prolonged

## CN[C@@H]1Cc2cccc3[nH]c(=O)n(c23)C1.O=C(O)/C=C\C(=O)O [Sumanirole, (5R)-5-(methylamino)-5,6-dihydro-4H-imidazo[4,5,1-ij]quinolin-2(1H)-one (Z)-2-butenedioate (1:1)]
rats; pretreatment with raclopride
  neuroprotective effects of sumanirole after pretreatment with raclopride: did not block
rats; sumanirole 1-20 mg/kg PO, given before or after 3-AP, dose-related
  3-AP induced reduction in rotorod performance: significantly attenuated
rats; [2]
  3-AP induced reduction in cerebellar ATP: significantly attenuated
  3-AP induced reduction in cerebellar cGMP: significantly attenuated
rats; sumanirole 1-20 mg/kg PO, neuronal cell counts 96 hours later
  inferior olive neuronal cell loss produced by 3-AP: significantly reduced
